Laboratory results published in US8871767B2, “2-arylimidazo[1,2-B]pyridazine, 2-phenylimidazo[1,2-A]pyridine, and 2-phenylimidazo[1,2-A]pyrazine derivatives” (Hengrui (USA) Ltd., priority 2010, dated 2014).

test system: Hedgehog pathway activation (GLi-luciferase reporter) in Shh Light II reporter cells; assay: Hedgehog pathway activation on Shh Light II reporter cells measured by luciferase activity; type: cell-based; details: Mus musculus, Shh Light II, hShh activation, read-out: Shh (IC50, inhibition of Hedgehog pathway activation)
Procedure, shortened: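 Shh Light II reporter cells carrying a hedgehog-responsive GLi-luciferase reporter were stimulated either with 500 nM SAG, a direct Smoothened agonist, or with conditioned media containing human Sonic Hedgehog (hShh). Test compounds were evaluated for blocking this pathway activation, quantified by luciferase activity. Cell viability was monitored in parallel with the Celltiter-Blue® assay.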

| SMILES | IC50 |
| --- | --- |
| CCOC(=O)COc1ccc(-c2ccc3nc(-c4ccc(C)c(NC(=O)C(C)(C)C)c4)cn3n2)c(C(F)(F)F)n1 [Example 476, ethyl 2-(5-(2-(4-methyl-3-pivalamidophenyl)imidazo[1,2-b]pyridazin-6-yl)-6-(trifluoromethyl)pyridin-2-yloxy)acetate] | 427 nM |
| Cc1ccc(-c2cn3nc(-c4cccnc4C(F)(F)F)ccc3n2)cc1C#N [Example 480, 2-methyl-5-(6-(2-(trifluoromethyl)pyridin-3-yl)imidazo[1,2-b]pyridazin-2-yl)benzonitrile] | 5190 nM |
| Cc1ccc(-c2cn3nc(-c4cccnc4C(F)(F)F)ccc3n2)cc1C(=O)O [Example 481, 2-methyl-5-(6-(2-(trifluoromethyl)pyridin-3-yl)imidazo[1,2-b]pyridazin-2-yl)benzoic acid] | > 10000 nM |
| Cc1ccc(-c2cn3nc(-c4cccnc4C(F)(F)F)ccc3n2)cc1C(N)=O [Example 482, 2-methyl-5-(6-(2-(trifluoromethyl)pyridin-3-yl)imidazo[1,2-b]pyridazin-2-yl)benzamide] | > 10000 nM |
| Cc1ccc(-c2cn3nc(-c4c(C)n[nH]c4C)ccc3n2)cc1NC(=O)C(C)(C)C [compound 501] | 1000 nM |
| Cc1ccc(-c2cn3nc(-c4c(C)noc4C)ccc3n2)cc1NC(=O)C(C)(C)C [compound 502] | 580 nM |
| Cc1ccc(-c2cn3nc(-c4c(C)nn(C)c4C)ccc3n2)cc1NC(=O)C(C)(C)C [compound 503] | 330 nM |
| CC(=O)Nc1ccc(-c2ccc3nc(-c4ccc(C)c(NC(=O)C(C)(C)C)c4)cn3n2)c(C)n1 [compound 504, N-(5-(6-(6-acetamido-2-methylpyridin-3-yl)imidazo[1,2-b]pyridazin-2-yl)-2-methylphenyl)pivalamide] | 360 nM |
| CC(=O)Nc1ccc(-c2ccc3nc(-c4ccc(C)c(NC(=O)C(C)(C)C)c4)cn3n2)cn1 [compound 505, N-(5-(6-(6-acetamidopyridin-3-yl)imidazo[1,2-b]pyridazin-2-yl)-2-methylphenyl)pivalamide] | 990 nM |
| COC(=O)c1csc(-c2cc(-c3cn4nc(-c5cccnc5C(F)(F)F)ccc4n3)ccc2C)n1 [compound 506] | 1340 nM |
| Cc1ccc(-c2cn3nc(-c4cccnc4C(F)(F)F)ccc3n2)cc1-c1c(C)noc1C [compound 507] | 2500 nM |
| COC(=O)CCCCC(=O)Nc1ccc(-c2ccc3nc(-c4ccc(C)c(NC(=O)C(C)(C)C)c4)cn3n2)c(C(F)(F)F)c1 [compound 510] | 379 nM |
| CC(=O)Nc1ncc(-c2cc(-c3cn4nc(-c5cccnc5C(F)(F)F)ccc4n3)ccc2C)s1 [compound 513] | 376 nM |
| Cc1ccc(-c2cn3nc(-c4cccnc4C(F)(F)F)ccc3n2)cc1N(C)C(=O)C(C)(C)C [compound 514, N-methyl-N-(2-methyl-5-(6-(2-(trifluoromethyl)pyridin-3-yl)imidazo[1,2-b]pyridazin-2-yl)phenyl)pivalamide] | 392 nM |
| COC(=O)CN(C(=O)C(C)(C)C)c1cc(-c2cn3nc(-c4cccnc4C(F)(F)F)ccc3n2)ccc1C [compound 515, methyl 2-(N-(2-methyl-5-(6-(2-(trifluoromethyl)pyridin-3-yl)imidazo[1,2-b]pyridazin-2-yl)phenyl)pivalamido)acetate] | 911 nM |
| COC(=O)CCCCCCN(C(=O)C(C)(C)C)c1cc(-c2cn3nc(-c4cccnc4C(F)(F)F)ccc3n2)ccc1C [compound 516, methyl 7-(N-(2-methyl-5-(6-(2-(trifluoromethyl)pyridin-3-yl)imidazo[1,2-b]pyridazin-2-yl)phenyl)pivalamido)heptanoate] | 1710 nM |
| Cc1ccc(-c2cn3nc(Cl)ccc3n2)cc1NC(=O)C1(C)CC1 [compound 517] | > 10000 nM |
| Cc1ccc(-c2cn3nc(-c4cccnc4C(F)(F)F)ccc3n2)cc1-c1nc(C(C)(C)C)cs1 [compound 520] | 492 nM |
| Cc1ccc(-c2cn3nc(-c4ccc(C(=O)O)cc4F)ccc3n2)cc1NC(=O)C(C)(C)C [compound 523] | 9630 nM |

| SMILES | IC50 |
| --- | --- |
| Cc1ccc(-c2cn3nc(-c4ccc(C(=O)N(C)C)cc4)ccc3n2)cc1NC(=O)C(C)(C)C [compound 524] | 479 nM |
| CNC(=O)c1ccc(-c2ccc3nc(-c4ccc(C)c(NC(=O)C(C)(C)C)c4)cn3n2)cc1 [compound 525] | 441 nM |
| Cc1ccc(-c2cn3nc(-c4ccc(NC(=O)CCCCCCC(=O)NO)cc4C(F)(F)F)ccc3n2)cc1NC(=O)C(C)(C)C [compound 530] | 6680 nM |
| Cc1ccc(-c2cn3nc(-c4cncc(C(F)(F)F)c4)ccc3n2)cc1NC(=O)C(C)(C)C [compound 536, N-(2-methyl-5-(6-(5-(trifluoromethyl)pyridin-3-yl)imidazo[1,2-b]pyridazin-2-yl)phenyl)pivalamide] | 370 nM |
| Cc1ccc(-c2cn3nc(-c4ccc(-c5nnco5)cc4)ccc3n2)cc1NC(=O)C(C)(C)C [compound 539] | 350 nM |
| Cc1ccc(-c2cn3nc(-c4ccc(C(N)=NO)cc4)ccc3n2)cc1NC(=O)C(C)(C)C [compound 546] | 1130 nM |
| Cc1nc(-c2ccc(-c3ccc4nc(-c5ccc(C)c(NC(=O)C(C)(C)C)c5)cn4n3)cc2)no1 [compound 549] | 204 nM |
| CCOC(=O)C=Cc1cccc(-c2ccc3nc(-c4ccc(C)c(NC(=O)C(C)(C)C)c4)cn3n2)c1 [compound 551] | 364 nM |
| CCOC(=O)C=Cc1ccc(-c2ccc3nc(-c4ccc(C)c(NC(=O)C(C)(C)C)c4)cn3n2)cc1 [compound 552] | 356 nM |
| Cc1ccc(-c2cn3nc(-c4ccc(C=CC(=O)O)cc4)ccc3n2)cc1NC(=O)C(C)(C)C [compound 555] | 346 nM |
| Cc1ccc(-c2cn3nc(-c4ccc(NC(=O)CCCCCCC(=O)O)cc4)ccc3n2)cc1NC(=O)C(C)(C)C [compound 561] | 2300 nM |
| Cc1ccc(-c2cn3nc(-c4ccc(NC(=O)CCCCCCC(=O)NO)cc4)ccc3n2)cc1NC(=O)C(C)(C)C [compound 563] | 622 nM |
| CCOC(=O)C=Cc1ccc2nc(-c3ccc(C)c(NC(=O)C(C)(C)C)c3)cn2n1 [compound 572] | 596 nM |
| Cc1ccc(-c2cn3nc(-c4ccc(C(N)=NO)cc4C)ccc3n2)cc1NC(=O)C(C)(C)C [compound 576] | 155 nM |
| Cc1ccc(-c2cn3nc(-c4cc(C(N)=NO)ccc4C)ccc3n2)cc1NC(=O)C(C)(C)C [compound 577] | 63 nM |
| Cc1ccc(-c2cn3nc(C=CC(=O)NO)ccc3n2)cc1NC(=O)C(C)(C)C [compound 578] | 9280 nM |
| Cc1ccc(-c2cn3nc(-c4cc(C=CC(=O)NO)ccc4Cl)ccc3n2)cc1NC(=O)C(C)(C)C [compound 579] | 317 nM |
| Cc1ccc(-c2cn3nc(-c4cccc(NC(=O)CCCCCCC(=O)NO)n4)ccc3n2)cc1NC(=O)C(C)(C)C [compound 580, N1-hydroxy-N8-(6-(2-(4-methyl-3-pivalamidophenyl)imidazo[1,2-b]pyridazin-6-yl)pyridin-2-yl)octanediamide] | 1320 nM |
| COC(=O)c1ccc(-c2ccc3nc(-c4ccc(C)c(NC(=O)C(C)(C)C)c4)cn3n2)cc1 [compound 582] | 1140 nM |

Results, then the molecule that gave them:

| IC50 | SMILES |
| --- | --- |
| 450 nM | Cc1ccc(-c2cn3nc(-c4c[nH]nc4C)ccc3n2)cc1NC(=O)C(C)(C)C [compound 500] |
| 1700 nM | Cc1ccc(-c2cn3nc(-c4ccc(O)cc4)ccc3n2)cc1NC(=O)C(C)(C)C [compound 519] |
| > 10000 nM | Cc1ccc(-c2cn3nc(-c4ccc(C(=O)O)cc4)ccc3n2)cc1NC(=O)C(C)(C)C [compound 521] |
| 1300 nM | CC(=O)c1ccc(-c2ccc3nc(-c4ccc(C)c(NC(=O)C(C)(C)C)c4)cn3n2)cc1 [compound 522] |
| 783 nM | Cc1ccc(-c2cn3nc(-c4ccc(C(N)=O)cc4)ccc3n2)cc1NC(=O)C(C)(C)C [compound 526] |
| 1050 nM | CC(=O)c1cccc(-c2ccc3nc(-c4ccc(C)c(NC(=O)C(C)(C)C)c4)cn3n2)c1 [compound 527] |
| 5850 nM | Cc1ccc(-c2cn3nc(-c4cccc(C(=O)O)c4)ccc3n2)cc1NC(=O)C(C)(C)C [compound 528] |
| 1450 nM | Cc1ccc(-c2cn3nc(-c4ccc(S(N)(=O)=O)cc4)ccc3n2)cc1NC(=O)C(C)(C)C [compound 534] |
| 734 nM | Cc1ccc(-c2cn3nc(-c4ccc(C(N)=O)nc4)ccc3n2)cc1NC(=O)C(C)(C)C [compound 537] |
| 430 nM | Cc1ccc(-c2cn3nc(-c4ccc(C(N)=O)cn4)ccc3n2)cc1NC(=O)C(C)(C)C [compound 538, 6-(2-(4-methyl-3-pivalamidophenyl)imidazo[1,2-b]pyridazin-6-yl)nicotinamide] |
| 793 nM | Cc1ccc(-c2cn3nc(-c4ccc(O)cc4F)ccc3n2)cc1NC(=O)C(C)(C)C [compound 547] |
| 763 nM | Cc1ccc(-c2cn3nc(-c4ccc(O)cc4Cl)ccc3n2)cc1NC(=O)C(C)(C)C [compound 548] |
| 418 nM | Cc1ccc(-c2cn3nc(-c4ccc(N)cc4)ccc3n2)cc1NC(=O)C(C)(C)C [compound 550] |
| 364 nM | Cc1ccc(-c2cn3nc(-c4ccc(C#N)cc4C)ccc3n2)cc1NC(=O)C(C)(C)C [compound 574] |
| 599 nM | Cc1ccc(-c2cn3nc(-c4cccc(N)n4)ccc3n2)cc1NC(=O)C(C)(C)C [compound 575, N-(5-(6-(6-aminopyridin-2-yl)imidazo[1,2-b]pyridazin-2-yl)-2-methylphenyl)pivalamide] |
| 82 nM | Cc1ccc(-c2cn3nc(-c4cccnc4C#N)ccc3n2)cc1NC(=O)C(C)(C)C [compound 581, N-(5-(6-(2-cyanopyridin-3-yl)imidazo[1,2-b]pyridazin-2-yl)-2-methylphenyl)pivalamide] |
| 742 nM | COC(=O)c1cccc(-c2ccc3nc(-c4ccc(C)c(NC(=O)C(C)(C)C)c4)cn3n2)c1 [compound 583] |

same assay, conditions: hShh activation, read-out: Shh (IC50, inhibition of Hedgehog pathway activation)

| IC50 | SMILES |
| --- | --- |
| 701 nM | Cc1ccc(-c2cn3nc(-c4cccnc4C(F)(F)F)ccc3n2)cc1NC(=O)CCCCCCC(=O)O [compound 553, 8-((2-methyl-5-(6-(2-(trifluoromethyl)pyridin-3-yl)imidazo[1,2-b]pyridazin-2-yl)phenyl)amino)-8-oxooctanoic acid] |
